Experimental data from patent publication US8324245B2, “Quinoline derivative and quinazoline derivative inhibiting self-phosphorylation of hepatocytus proliferator receptor, and medicinal composition containing the same” (Kyowa Hakko Kirin Co., Ltd., priority 2001, dated 2012).

Biological target: T1, met (HGF receptor) in human gastric cancer cells MKN45 (Homo sapiens, UniProt P08581)
T1 construct: endogenous in cells; host or cells: MKN45 human gastric cancer cells
Assay: Inhibitory activity against met-autophosphorylation using ELISA method (2), MKN45 cells, HGF-independent
Assay type: cell-based
Protocol: Cells were cultured with RPMI medium containing 0.1% fetal calf serum in 96-well flat-bottom plate in an amount of 3×10^4 per well, and were incubated at 37° C. overnight. The medium was then replaced by a fresh RPMI medium containing 0.1% fetal calf serum. A solution of the test compound in dimethyl sulfoxide was added to each well, and the incuvation was continued at 37° C. for additional one hr. The medium was removed, the cells were washed with phosphate buffered saline (pH 7.4), and 50 μl of a lysis buffer (20 mM HEPES (pH 7.4), 150 mM NaCl, 0.2% Triton X-100, 10% glycerol, 5 mM sodium orthovanadylate, 5 mM disodium ethylenediaminetetraacetate, and 2 mM Na4P2O7) was then added thereto. The mixture was shaken at 4° C. for 2 hr to prepare a cell extract.
Separately, phosphate buffered saline (50 μl, pH 7.4) containing 5 μg/ml of anti-phospho-tyrosine antibody (PY20; purchased from Transduction Laboratories) was added to a microplate for ELISA (Maxisorp; purchased from NUNC), followed by gentle agitation at 4° C. overnight to coat the surface of the wells with the antibody. After washing of the plate, 300 μl of a blocking solution was added, followed by gentle agitation at room temperature for 2 hr to perform blocking. After washing, the whole quantity of the cell extract was transferred to the wells, and the plate was then allowed to stand at 4° C. overnight. After washing, an anti-HGF receptor antibody (h-Met (C-12), purchased from Santa Cruz Biotechnology) was allowed to react at room temperature for one hr, and, after washing, a peroxidase-labeled anti-rabbit Ig antibody (purchased from Amersham) was allowed to react at room temperature for one hr. After washing, a chromophoric substrate for peroxidase (purchased from Sumitomo Bakelite Co., Ltd.) was added thereto to initiate a reaction. After a suitable level of color development, a reaction termination solution was added to stop the reaction, and the absorbance at 450 nm was measured with a microplate reader.

T1 sequence (P08581 25-1390): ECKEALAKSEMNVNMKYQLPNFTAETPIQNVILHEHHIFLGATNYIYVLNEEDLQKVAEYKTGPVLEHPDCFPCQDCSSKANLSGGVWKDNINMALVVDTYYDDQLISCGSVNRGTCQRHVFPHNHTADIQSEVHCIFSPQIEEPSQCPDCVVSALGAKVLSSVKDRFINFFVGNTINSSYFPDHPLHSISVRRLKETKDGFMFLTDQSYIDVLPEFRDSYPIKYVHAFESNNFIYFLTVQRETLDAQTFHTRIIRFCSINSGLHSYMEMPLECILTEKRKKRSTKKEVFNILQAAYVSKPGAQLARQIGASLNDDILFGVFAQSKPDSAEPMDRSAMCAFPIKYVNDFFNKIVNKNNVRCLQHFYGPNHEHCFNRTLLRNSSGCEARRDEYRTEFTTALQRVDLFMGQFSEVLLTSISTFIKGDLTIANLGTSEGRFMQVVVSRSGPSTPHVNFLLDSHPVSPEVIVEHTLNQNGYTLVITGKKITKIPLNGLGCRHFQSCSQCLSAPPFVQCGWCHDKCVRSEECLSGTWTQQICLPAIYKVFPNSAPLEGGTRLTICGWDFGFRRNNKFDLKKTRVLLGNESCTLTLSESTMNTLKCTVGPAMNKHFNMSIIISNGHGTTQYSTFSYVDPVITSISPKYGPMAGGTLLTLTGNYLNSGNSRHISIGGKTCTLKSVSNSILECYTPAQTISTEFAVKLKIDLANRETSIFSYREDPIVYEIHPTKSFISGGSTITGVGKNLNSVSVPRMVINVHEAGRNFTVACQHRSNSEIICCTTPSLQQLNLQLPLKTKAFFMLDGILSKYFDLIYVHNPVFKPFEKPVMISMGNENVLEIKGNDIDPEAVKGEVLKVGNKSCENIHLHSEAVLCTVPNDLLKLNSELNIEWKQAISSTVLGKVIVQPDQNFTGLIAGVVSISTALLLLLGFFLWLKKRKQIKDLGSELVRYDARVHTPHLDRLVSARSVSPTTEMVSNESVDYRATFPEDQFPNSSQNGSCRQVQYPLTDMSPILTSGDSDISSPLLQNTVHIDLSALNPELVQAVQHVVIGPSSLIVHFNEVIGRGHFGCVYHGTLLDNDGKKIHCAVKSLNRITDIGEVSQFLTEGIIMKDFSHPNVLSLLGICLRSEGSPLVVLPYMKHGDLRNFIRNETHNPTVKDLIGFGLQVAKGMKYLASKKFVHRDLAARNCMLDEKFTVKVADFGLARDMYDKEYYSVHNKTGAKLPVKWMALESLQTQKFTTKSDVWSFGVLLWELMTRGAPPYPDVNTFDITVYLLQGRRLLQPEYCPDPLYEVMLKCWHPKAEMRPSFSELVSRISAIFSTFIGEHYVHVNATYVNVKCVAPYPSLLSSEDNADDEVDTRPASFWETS

SMILES	IC50
COc1cc2nccc(Oc3ccc(NC(=O)NC(=O)Cc4ccccc4)cc3)c2cc1OC [Example 4, 1-[4-(6,7-dimethoxyquinolin-4-yloxy)phenyl]-3-phenyl-acetylurea]	75 nM
COc1cc2nccc(Oc3ccc(NC(=O)CC(=O)Nc4ccc(F)cc4)cc3)c2cc1OC [Example 5, N-[4-(6,7-dimethoxyquinolin-4-yloxy)phenyl]-N′-(4-fluorophenyl)malonamide]	18.9 nM
COc1cc2nccc(Oc3ccc(NC(=O)CC(=O)Nc4ccc(F)cc4F)cc3Cl)c2cc1OC [Example 6, N-[3-chloro-4-(6,7-dimethoxyquinolin-4-yloxy)-phenyl]-N′-(2,4-difluorophenyl)malonamide]	31.6 nM
COc1cc2nccc(Oc3ccc(NC(=O)NC(=O)CSC4CCCC4)cc3)c2cc1OC [Example 7, 1-(2-cyclopentylsulfanylacetyl)-3-[4-(6,7-dimethoxyquinolin-4-yloxy)phenyl]urea]	292 nM
COc1cc2nccc(Oc3ccc(NC(=O)NC(=O)CN4CCc5ccccc54)cc3Cl)c2cc1OC [Example 8, 1-[3-chloro-4-(6,7-dimethoxyquinolin-4-yloxy)-phenyl]-3-[2-(2,3-dihydro-1H-1-indol-1-yl)acetyl]-urea]	298 nM
COc1cc2c(Oc3ccc(NC(=O)NC(=O)Cc4ccccc4)cc3F)ccnc2cc1OCCCCN1CCN(C)CC1 [Example 12, 1-(3-fluoro-4-{6-methoxy-7-[4-(4-methyl-piperazin-1-yl)-butoxy]quinolin-4-yloxy}phenyl)-3-phenylacetylurea]	199 nM
COc1cc2c(Oc3ccc(NC(=O)NC(=O)Cc4ccccc4)cc3F)ccnc2cc1OCCN1CCCCC1 [Example 13, 1-{3-fluoro-4-[6-methoxy-7-(2-piperidin-1-yl-ethoxy)quinolin-4-yloxy]phenyl}-3-phenylacetylurea]	141 nM
COc1cc2c(Oc3ccc(NC(=O)NC(=O)Cc4ccccc4)cc3F)ccnc2cc1OCCCCl [Example 14, 1-{4-[7-(3-chloro-propoxy)-6-methoxyquinolin-4-yloxy]-3-fluorophenyl}-3-phenylacetylurea]	291 nM
COc1cc2nccc(Oc3ccc(NC(=O)C(C)C(=O)Nc4ccc(F)cc4F)cc3)c2cc1OC (stereo not shown) [Example 15, N-(2,4-difluorophenyl)-N′-[4-(6,7-dimethoxy-quinolin-4-yloxy)phenyl]-2-methylmalonamide]	302 nM
COc1cc2nccc(Oc3ccc(NC(=O)NC(=O)Cc4ccccc4)c(F)c3)c2cc1OC [Example 16, 1-[4-(6,7-dimethoxyquinolin-4-yloxy)-2-fluoro-phenyl]-3-phenylacetylurea]	32.8 nM
COc1cc2nccc(Oc3ccc(NC(=O)NC(=O)Cc4ccccc4)cc3F)c2cc1OC [Example 17, 1-[4-(6,7-dimethoxyquinolin-4-yloxy)-3-fluoro-phenyl]-3-phenylacetylurea]	30.7 nM
COc1cc2nccc(Oc3ccc(NC(=O)NC(=O)Cc4ccccc4)cc3Cl)c2cc1OC [Example 18, 1-[3-chloro-4-(6,7-dimethoxyquinolin-4-yloxy)-phenyl]-3-phenylacetylurea]	150 nM
COc1cc2nccc(Oc3ccc(NC(=O)NC(=O)Cc4ccsc4)c(F)c3)c2cc1OC [Example 19, 1-[4-(6,7-dimethoxyquinolin-4-yloxy)-2-fluoro-phenyl]-3-(2-thiophen-3-ylacetyl)urea]	104 nM
COc1cc2nccc(Oc3ccc(NC(=O)NC(=O)Cc4ccsc4)cc3F)c2cc1OC [Example 20, 1-[4-(6,7-dimethoxyquinolin-4-yloxy)-3-fluoro-phenyl]-3-(2-thiophen-3-ylacetyl)urea]	31.8 nM
COc1cc2nccc(Oc3ccc(NC(=O)NC(=O)Cc4ccsc4)cc3Cl)c2cc1OC [Example 21, 1-[3-chloro-4-(6,7-dimethoxyquinolin-4-yloxy)-phenyl]-3-(2-thiophen-3-ylacetyl)urea]	188 nM
COc1cc2nccc(Oc3ccc(NC(=O)NC(=O)Cc4ccc(F)cc4)cc3)c2cc1OC [Example 22, 1-[4-(6,7-dimethoxyquinolin-4-yloxy)phenyl]-3-[2-(4-fluorophenyl)acetyl]urea]	24.6 nM
COc1cc2nccc(Oc3ccc(NC(=O)NC(=O)Cc4ccc(F)cc4)cc3F)c2cc1OC [Example 23, 1-[4-(6,7-dimethoxyquinolin-4-yloxy)-3-fluoro-phenyl]-3-[2-(4-fluorophenyl)acetyl]urea]	26.3 nM
COc1cc2nccc(Oc3ccc(NC(=O)NC(=O)Cc4ccc(F)cc4)cc3Cl)c2cc1OC [Example 24, 1-[3-chloro-4-(6,7-dimethoxyquinolin-4-yloxy)phenyl]-3-[2-(4-fluorophenyl)acetyl]urea]	27.7 nM
COc1cc2nccc(Oc3ccc(NC(=O)NC(=O)Cc4ccccc4F)cc3)c2cc1OC [Example 25, 1-[4-(6,7-dimethoxyquinolin-4-yloxy)phenyl]-3-[2-(2-fluorophenyl)acetyl]urea]	140 nM
COc1cc2nccc(Oc3ccc(NC(=O)NC(=O)Cc4ccccc4F)c(F)c3)c2cc1OC [Example 26, 1-[4-(6,7-dimethoxyquinolin-4-yloxy)-2-fluoro-phenyl]-3-[2-(2-fluorophenyl)acetyl]urea]	126 nM
COc1cc2nccc(Oc3ccc(NC(=O)NC(=O)Cc4ccccc4F)cc3F)c2cc1OC [Example 27, 1-[4-(6,7-dimethoxyquinolin-4-yloxy)-3-fluorophenyl]-3-[2-(2-fluorophenyl)acetyl]urea]	80 nM
COc1cc2nccc(Oc3ccc(NC(=O)NC(=O)Cc4ccccc4F)cc3Cl)c2cc1OC [Example 28, 1-[3-chloro-4-(6,7-dimethoxyquinolin-4-yloxy)-phenyl]-3-[2-(2-fluorophenyl)acetyl]urea]	162 nM
COc1cc2nccc(Oc3ccc(NC(=O)NC(=O)Cc4cccs4)cc3)c2cc1OC [Example 29, 1-[4-(6,7-dimethoxyquinolin-4-yloxy)phenyl]-3-(2-thiophen-2-ylacetyl)urea]	37.1 nM

The remaining lines, values ahead:

IC50	SMILES
1280 nM	COc1cc2nccc(Oc3ccc(NC(=S)NC(=O)C4C[C@@H]4c4ccccc4)cc3)c2cc1OC (stereo in doubt) [Example 150, 1-[4-(6,7-dimethoxyquinolin-4-yloxy)phenyl]-3-(2-phenylcyclopropanecarbonyl)thiourea]
35.1 nM	COc1cc2nccc(Oc3ccc(NC(=O)NC(=O)Cc4cccs4)c(F)c3)c2cc1OC [Example 30, 1-[4-(6,7-dimethoxyquinolin-4-yloxy)-2-fluoro-phenyl]-3-(2-thiophen-2-ylacetyl)urea]
34.1 nM	COc1cc2nccc(Oc3ccc(NC(=O)NC(=O)Cc4cccs4)cc3F)c2cc1OC [Example 31, 1-[4-(6,7-dimethoxyquinolin-4-yloxy)-3-fluoro-phenyl]-3-(2-thiophen-2-ylacetyl)urea]
171 nM	COc1cc2nccc(Oc3ccc(NC(=O)NC(=O)Cc4cccs4)cc3Cl)c2cc1OC [Example 32, 1-[3-chloro-4-(6,7-dimethoxyquinolin-4-yloxy)-phenyl]-3-(2-thiophen-2-ylacetyl)urea]
61.8 nM	COc1cc2nccc(Oc3ccc(NC(=O)NC(=O)Cc4ccc(F)cc4F)c(F)c3)c2cc1OC [Example 33, 1-[2-(2,4-difluorophenyl)acetyl]-3-[4-(6,7-dimethoxyquinolin-4-yloxy)-2-fluorophenyl]urea]
46.3 nM	COc1cc2nccc(Oc3ccc(NC(=O)NC(=O)Cc4ccc(F)cc4F)cc3F)c2cc1OC [Example 34, 1-[2-(2,4-difluorophenyl)acetyl]-3-[4-(6,7-dimethoxyquinolin-4-yloxy)-3-fluorophenyl]urea]
41.4 nM	COc1cc2nccc(Oc3ccc(NC(=O)NC(=O)Cc4ccc(F)c(F)c4)cc3F)c2cc1OC [Example 35, 1-[2-(3,4-difluorophenyl)acetyl]-3-[4-(6,7-dimethoxyquinolin-4-yloxy)-3-fluorophenyl]urea]
198 nM	COc1cc2nccc(Oc3ccc(NC(=O)NC(=O)Cc4cccc(F)c4)c(F)c3)c2cc1OC [Example 36, 1-[4-(6,7-dimethoxyquinolin-4-yloxy)-2-fluoro-phenyl]-3-[2-(3-fluorophenyl)acetyl]urea]
58.4 nM	COc1cc2nccc(Oc3ccc(NC(=O)NC(=O)Cc4cccc(F)c4)cc3F)c2cc1OC [Example 37, 1-[4-(6,7-dimethoxyquinolin-4-yloxy)-3-fluoro-phenyl]-3-[2-(3-fluorophenyl)acetyl]urea]
29.1 nM	COc1cc(Oc2ccnc3cc(OC)c(OC)cc23)ccc1NC(=O)NC(=O)Cc1ccc(F)cc1 [Example 38, 1-[4-(6,7-dimethoxyquinolin-4-yloxy)-2-methoxyphenyl]-3-[2-(4-fluorophenyl)acetyl]urea]
114 nM	COc1cc2nccc(Oc3ccc(NC(=O)NC(=O)Cc4ccc(F)c(F)c4)cc3)c2cc1OC [Example 39, 1-[2-(3,4-difluorophenyl)acetyl]-3-[4-(6,7-dimethoxyquinolin-4-yloxy)phenyl]urea]
